Measured values as given in ChEMBL document CHEMBL3525922, “Significance of reductive metabolism in human intestine and quantitative prediction of intestinal first-pass metabolism by cytosolic reductive enzymes” (Drug Metab Dispos, 2013).
Values belong to the compound of their own block, whether it stands above or below them.

Key:
[1] = Drug level in human intestinal cytosol treated with 10 uM mebendazole after 20.74 mins by HPLC-MS analysis; assay type: ADME, Intestine; details: 0.345667 h
Liver [2] = test: Drug level in human liver S9 fraction treated with 10 uM mebendazole after 19.80 to 20.76 mins by HPLC-MS analysis; assay type: ADME, subcellular
[3] = Drug level in human intestinal S9 fraction treated with 10 uM mebendazole 20.69 mins by HPLC-MS analysis; assay type: ADME, Intestine; details: s9, 0.344833 h
Liver cytosol [4] = test: Drug level in human liver cytosol treated with 10 uM mebendazole after 20.80 mins by HPLC-MS analysis; assay type: ADME, tissue-based; details: 0.346667 h
[5] = Metabolic stability in human intestinal S9 fraction assessed as compound remaining at 50 to 1000 nM after 60 mins by HPLC-MS/MS analysis; assay type: ADME, Intestine; details: read-out: Stability
Liver cytosol [6] = test: Unbound intrinsic clearance in human liver cytosol at 50 to 1000 nM after 30 to 60 mins by HPLC-MS/MS analysis; assay type: ADME, tissue-based; details: 1 µM
[7] = Unbound intrinsic clearance in human intestinal S9 fraction at 50 to 1000 nM after 30 to 60 mins by HPLC-MS/MS analysis in presence of NADPH; assay type: ADME, Intestine; details: s9, 1 µM
Liver microsome [8] = test: Unbound intrinsic clearance in human liver microsomes at 50 to 1000 nM after 30 to 60 mins by HPLC-MS/MS analysis; assay type: ADME; details: 1 µM
[9] = Metabolic stability in human intestinal cytosol at 200 nM after 60 mins in presence of menadione; assay type: ADME, Intestine; details: 1 h, 0.2 µM
[10] = Intrinsic clearance in human intestinal S9 fraction at 50 to 1000 nM after 60 mins by HPLC-MS/MS analysis; assay type: ADME, Intestine; details: s9, 1 h, 1 µM
[11] = Unbound intrinsic clearance in human intestinal S9 fraction at 50 to 1000 nM after 30 to 60 mins by HPLC-MS/MS analysis; assay type: ADME, Intestine; details: s9, 1 µM
[12] = Unbound intrinsic clearance in human intestinal S9 fraction at 50 to 1000 nM after 30 to 60 mins by HPLC-MS/MS analysis in presence of NADH; assay type: ADME, Intestine; details: s9, 1 µM
Liver [13] = test: Unbound intrinsic clearance in human liver S9 fraction at 50 to 1000 nM after 30 to 60 mins by HPLC-MS/MS analysis; assay type: ADME, subcellular; details: s9, 1 µM
[14] = Apparent permeability of the compound at 50 uM at pH 7.4 after 240 mins by PAMPA; assay type: physicochemical
[15] = Unbound intrinsic clearance in human intestinal cytosol at 50 to 1000 nM after 30 to 60 mins by HPLC-MS/MS analysis; assay type: ADME, Intestine; details: 1 µM
[16] = Drug metabolism in human intestinal cytosol at 200 nM after 60 mins in presence of ondansetron; assay type: ADME, Intestine; details: 1 h, 0.2 µM
[17] = Unbound intrinsic clearance in human intestinal microsomes at 50 to 1000 nM after 30 to 60 mins by HPLC-MS/MS analysis; assay type: ADME, Intestine, Microsome; details: 1 µM
[18] = Drug metabolism in human intestinal cytosol at 200 nM after 60 mins in presence of flufenamic acid; assay type: ADME, Intestine; details: 1 h, 0.2 µM
[19] = biological target: T1, carbonyl reductase (Carbonyl reductase [NADPH] 1) (Homo sapiens, UniProt P16152); test: Activity of carbonyl reductase in liver cytosol (unknown origin) assessed as enzyme-mediated drug metabolism; assay type: ADME, tissue-based
T1 sequence (P16152 whole entry): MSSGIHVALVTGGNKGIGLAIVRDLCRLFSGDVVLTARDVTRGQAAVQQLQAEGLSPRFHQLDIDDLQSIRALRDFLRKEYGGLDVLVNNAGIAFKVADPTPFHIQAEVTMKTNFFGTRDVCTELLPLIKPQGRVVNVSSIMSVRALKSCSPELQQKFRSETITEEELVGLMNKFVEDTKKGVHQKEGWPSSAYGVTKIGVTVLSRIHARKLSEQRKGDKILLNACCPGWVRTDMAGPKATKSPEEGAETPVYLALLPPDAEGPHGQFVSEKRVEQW

[20] = biological target: T1, carbonyl reductase (Carbonyl reductase [NADPH] 1); test: Activity of recombinant carbonyl reductase (unknown origin); assay type: ADME
[21] = Drug metabolism in human liver S9 fraction assessed as reductive metabolite formation at 10 uM after 20.76 mins by HPLC-MS analysis; assay type: ADME, subcellular; details: s9, 0.346 h
[22] = Drug metabolism in human intestinal cytosol at 200 nM after 30 mins in presence of ondansetron; assay type: ADME, Intestine; details: 0.5 h, 0.2 µM
[23] = Drug metabolism in human intestinal cytosol assessed as reductive metabolite formation at 10 uM after 20.74 mins by HPLC-MS analysis; assay type: ADME, Intestine; details: 0.345667 h
[24] = Drug metabolism in human intestinal S9 fraction assessed as reductive metabolite formation at 10 uM after 20.69 mins by HPLC-MS analysis; assay type: ADME, Intestine; details: s9, 0.344833 h
[25] = Intrinsic clearance in human intestinal microsomes at 50 to 1000 nM after 60 mins by HPLC-MS/MS analysis; assay type: ADME, Intestine, Microsome; details: 1 h, 1 µM
Liver microsome [26] = test: Drug metabolism in human liver microsomes assessed as hydrolyzed metabolite formation at 10 uM after 19.83 mins by HPLC-MS analysis; assay type: ADME; details: 0.3305 h
[27] = Drug metabolism in human liver S9 fraction assessed as hydrolyzed metabolite formation at 10 uM after 19.80 mins by HPLC-MS analysis; assay type: ADME, subcellular; details: s9, 0.33 h
[28] = Drug metabolism in human intestinal cytosol at 200 nM after 30 mins in presence of flufenamic acid; assay type: ADME, Intestine; details: 0.5 h, 0.2 µM
[29] = Metabolic stability in human intestinal cytosol at 200 nM after 30 mins in presence of menadione; assay type: ADME, Intestine; details: 0.5 h, 0.2 µM
[30] = Metabolic stability in human intestinal S9 fraction assessed as compound remaining at 50 to 1000 nM after 60 mins by HPLC-MS/MS analysis in presence of NADH; parameters: dose or concentration left out as unconfirmed
Liver cytosol [31] = test: Drug metabolism in human liver cytosol assessed as reductive metabolite formation at 10 uM after 20.80 mins by HPLC-MS analysis; assay type: ADME, tissue-based; details: 0.346667 h
[32] = Metabolic stability in human intestinal microsomes assessed as compound remaining at 50 to 1000 nM after 60 mins by HPLC-MS/MS analysis; assay type: ADME, Intestine, Microsome; details: read-out: Stability
[33] = human, s9, 1 h, 1 µM

Drug metabolism [1]: metabolite_detected
Drug metabolism (Liver [2]): metabolite_detected
Drug metabolism [3]: metabolite_detected
Drug metabolism (Liver cytosol [4]): metabolite_detected
SMILES: COC(=O)Nc1nc2ccc(C(O)c3ccccc3)cc2[nH]1 (stereo unspecified)

Drug metabolism (Liver [2]): metabolite_detected
SMILES: Nc1nc2ccc(C(=O)c3ccccc3)cc2[nH]1

remaining at 1 h, up to 1 µM [5]: > 90%
CL free (Liver cytosol [6]): 23 µL/min/mg
CL free [7]: 28 µL/min/mg
CL free (Liver microsome [8]): 118 µL/min/mg
Stability [9]: Stable
CL [10]: < 1.8 µL/min/mg
CL free [11]: 28 µL/min/mg
CL free [12]: 15 µL/min/mg
CL free (Liver [13]): 89 µL/min/mg
Papp at 4 h, 50 µM [14]: 672 nm/s
CL free [15]: 15 µL/min/mg
Drug metabolism [16]: metabolite_detected
CL free [17]: 29 µL/min/mg
Drug metabolism [18]: metabolite_detected
SMILES: O=C1Cc2cc(CCN3CCN(c4nsc5ccccc45)CC3)c(Cl)cc2N1 [ZIPRASIDONE]

Km [19]: 250 µM
Papp at 4 h, 50 µM [14]: 337 nm/s
Drug metabolism [16]: metabolite_detected
Km [20]: 1200 µM
Drug metabolism [18]: metabolite_detected
SMILES: O=C(CCCN1CCC(O)(c2ccc(Cl)cc2)CC1)c1ccc(F)cc1 [HALOPERIDOL]

remaining at 1 h, up to 1 µM [5]: > 90%
Drug metabolism [21]: metabolite_detected
Drug metabolism [22]: metabolite_detected
Drug metabolism [23]: metabolite_detected
Drug metabolism [24]: metabolite_detected
CL [25]: < 8.8 µL/min/mg
Drug metabolism (Liver microsome [26]): metabolite_detected
CL free (Liver microsome [8]): 9 µL/min/mg
CL [10]: < 1.8 µL/min/mg
Drug metabolism [27]: metabolite_detected
Drug metabolism [28]: metabolite_detected
Stability [29]: Stable
remaining at 1 h [30]: > 90%
Drug metabolism (Liver cytosol [31]): metabolite_detected
remaining at 1 h, up to 1 µM [32]: > 90%
Papp at 4 h, 50 µM [14]: 485 nm/s
CL [33]: < 1.8 µL/min/mg
SMILES: COC(=O)Nc1nc2ccc(C(=O)c3ccccc3)cc2[nH]1 [MEBENDAZOLE]
